Results on six compounds are retold here after the supplement of paper PMC11061612.

Experiment in all cases: Bliss excess, mean over the matrix (fraction); higher = more synergy
The subject of assay [1] is HPAC (Pancreatic Carcinoma). Put shortly:
(§1)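 Bliss excess equals the observed combination effect minus the expected value EA + EB − EA·EB, where EA and EB are the effects of each agent alone. Combination Emax is the second-highest inhibition within the matrix. Inhibition was scaled from CellTiter-Glo 2.0 luminescence, with 0 set by vehicle wells and 1 by blank wells, after 72 hours of two-drug dosing of cells plated in 1536-well plates.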

The subject of assay [2] is LS-513 (Colorectal Carcinoma). A digest of the protocol:
as §1

Assay [3] relates to NCI-H1694 (Small Cell Lung Carcinoma). Put shortly:
as §1

The next assay relates to IGR-1 (Melanoma). A digest of the protocol:
as §1

Assay [4] deals with EM-2 (Chronic Myelogenous Leukemia). Put shortly:
as §1

In assay [5] the test system is NALM-6 (B-Lymphoblastic Leukemia). Put shortly: as §1
In assay [6] the test system is LU-99A (Non-Small Cell Lung Carcinoma). Put shortly:
as §1

Assay [7] deals with SW1088 (Low Grade Glioma). Put shortly: as §1
Assay [8] relates to COR-L23 (Non-Small Cell Lung Carcinoma). A digest of the protocol: as §1
The test system of assay [9] is NCI-H1793 (Lung Adenocarcinoma). A digest of the protocol: as §1
In assay [10] the test system is MDA-MB-231 (Breast Carcinoma). A digest of the protocol: as §1
Assay [11] deals with HT-29 (Colorectal Carcinoma). Put shortly: as §1
Assay [12] concerns COR-L95 (Small Cell Lung Carcinoma). Put shortly:
as §1

The subject of assay [13] is SW1783 (Low Grade Glioma). Put shortly:
as §1

Assay [14] relates to SW780 (Bladder Carcinoma). A digest of the protocol:
as §1

Assay [15] relates to DB (B-Cell Non-Hodgkin's Lymphoma). Put shortly:
as §1

Assay [16] concerns HCC2157 (Breast Carcinoma). A digest of the protocol: as §1
The test system of assay [17] is DOV13 (Ovarian Carcinoma). Put shortly: as §1
Assay [18] deals with SW1990 (Pancreatic Carcinoma). Put shortly: as §1
Assay [19] concerns NCI-H1781 (Lung Adenocarcinoma). A digest of the protocol:
as §1

SMILES strings stand for the structures.

Turning to `CN(CCO)CC[C@H](CSc1ccccc1)Nc1ccc(S(=O)(=O)NC(=O)c2ccc(N3CCC([C@@H](O)c4ccccc4-c4ccc(Cl)cc4)CC3)cc2)cc1S(=O)(=O)C(F)(F)F` [AZD4320] + Cc1cc2ncnn2cc1Nc1ncc2c(n1)n(C1CCOCC1)c(=O)n2C [AZD7648] (first compound max 1 µM, 7x7, partner max 10 µM), the Bliss excess was -0.0292 in assay [1]; -0.0543 in [2]; 0.0357 in [3]; -0.0137 in the assay with IGR-1 (Melanoma); 0.0184 in assay [4]; -0.0061 in assay [5]. Also, the Bliss excess was -0.0522 in [6]; -0.0184 in assay [7]; -0.0348 in [8]; 0.0025 in assay [9]; -0.0082 in assay [10]; -0.0293 in assay [11]. Also, the Bliss excess was 0.0276 in [12]; -0.044 in [13]; -0.0578 in [14]; -0.0149 in assay [15]; 0.0378 in assay [16]; -0.0588 in assay [17]. Further, the Bliss excess was -0.0418 in assay [18] and -0.0388 in assay [19].
Consider `NC1(C(=O)N[C@@H](CCO)c2ccc(Cl)cc2)CCN(c2ncnc3[nH]ccc23)CC1` [Capivasertib] + CCN(CCO)CCCOc1ccc2c(Nc3cc(CC(=O)Nc4cccc(F)c4)[nH]n3)ncnc2c1 [AZD2811] (first compound max 10 µM, 7x7, partner max 1 µM), for which the Bliss excess is -0.049 in assay [1]; -0.0771 in [2]; 0.0503 in assay [3]; 0.0077 in the assay on IGR-1 (Melanoma); -0.0463 in [4]; -0.0987 in assay [5]. Moreover, the Bliss excess was 0.0154 in assay [6]; -0.0088 in assay [7]; -0.0446 in [8]; -0.0515 in assay [9]; -0.0154 in assay [10]; -0.0137 in assay [11]. The Bliss excess in [12] was -0.0075; in assay [13], -0.0236; in assay [14], 0.015; in assay [15], 0.0338; in [16] it was -0.0286; in assay [17], -0.0392. In addition, the Bliss excess in assay [18] was -0.033; in [19], -0.0433.
For the compound `CN(CCO)CC[C@H](CSc1ccccc1)Nc1ccc(S(=O)(=O)NC(=O)c2ccc(N3CCC([C@@H](O)c4ccccc4-c4ccc(Cl)cc4)CC3)cc2)cc1S(=O)(=O)C(F)(F)F` [AZD4320] + CCN(CCO)CCCOc1ccc2c(Nc3cc(CC(=O)Nc4cccc(F)c4)[nH]n3)ncnc2c1 [AZD2811] (first compound max 1 µM, 7x7, partner max 1 µM), the Bliss excess in [1] is 0.0486; in assay [2] it was -0.0584; in [3] it was 0.169; with IGR-1 (Melanoma), 0.148; in assay [4], -0.0327; in [5], 0.0868. Also, the Bliss excess in [6] is 0.0564; in assay [7], -0.0659; in assay [8] it was -0.0343; in assay [9], -0.0421; in assay [10], 0.0602; in [11], -0.0074. Moreover, the Bliss excess is 0.0522 in assay [12]; -0.0701 in assay [13]; 0.028 in assay [14]; 0.0983 in assay [15]; 0.0907 in [16]; 0.0816 in [17]. In addition, the Bliss excess was -0.0214 in assay [18] and -0.0788 in [19].
In the case of `COc1nnc2ccc(N3CCC(c4ccc(OCCN5CCN(C)C(=O)[C@H]5C)cc4)CC3)nn12` [AZD5153] + C=CCn1c(=O)c2cnc(Nc3ccc(N4CCN(C)CC4)cc3)nc2n1-c1cccc(C(C)(C)O)n1 [AZD1775] (first compound max 1 µM, partner max 1 µM), the Bliss excess is -0.111 in assay [1]; -0.0603 in assay [2]; -0.0205 in [3]; 0.0203 in the assay with IGR-1 (Melanoma); -0.0217 in assay [4]; -0.0559 in assay [5]. Besides, the Bliss excess was -0.02 in assay [6]; -0.0364 in assay [7]; -0.0459 in assay [8]; -0.0548 in assay [9]; -0.0768 in [10]; -0.0532 in assay [11]. Further, the Bliss excess in assay [12] was 0.0012; in assay [13] it was -0.0531; in assay [14] it was -0.0163; in [15], -0.0996; in [16], -0.0734; in assay [17], -0.0561. Moreover, the Bliss excess in assay [18] is -0.0567; in assay [19], -0.0744.
On to `CN(CCO)CC[C@H](CSc1ccccc1)Nc1ccc(S(=O)(=O)NC(=O)c2ccc(N3CCC([C@@H](O)c4ccccc4-c4ccc(Cl)cc4)CC3)cc2)cc1S(=O)(=O)C(F)(F)F` [AZD4320] + C[C@@H](Nc1cc(F)cc(F)c1)c1cc(C(=O)N(C)C)cc2c(=O)cc(N3CCOCC3)oc12 [AZD8186] (first compound max 1 µM, 7x7, partner max 3 µM), for which the Bliss excess in assay [1] was -0.0014; in [2] it was -0.0076; in assay [3] it was 0.0454; with IGR-1 (Melanoma), 0.0019; in assay [4], 0.0055; in [5] it was 0.0514. Besides, the Bliss excess is -0.0296 in [6]; 0.0357 in [7]; -0.0063 in assay [8]; 0.0516 in assay [9]; 0.0174 in assay [10]; 0.0097 in assay [11]. For the same compound, the Bliss excess in assay [12] was 0.0256; in assay [13], -0.0348; in [14] it was 0.0084; in [15], -0.0096; in assay [16] it was 0.0774; in assay [17], -0.0141. For the same compound, the Bliss excess came out at 0.0048 in [18] and 0.0358 in assay [19].
On to `CCc1c2c(nc3ccc(O)cc13)-c1cc3c(c(=O)n1C2)COC(=O)[C@]3(O)CC` [SN-38] + O=C(c1cc(Cc2n[nH]c(=O)c3ccccc23)ccc1F)N1CCN(C(=O)C2CC2)CC1 [Olaparib] (first compound max 0.3 µM, 7x7, partner max 10 µM), for which the Bliss excess was -0.0031 in [1]; 0.0731 in assay [2]; 0.0115 with IGR-1 (Melanoma); 0.0606 in [4]; 0.0775 in [5]; 0.0452 in [6]. For the same compound, the Bliss excess stood at 0.0683 in [7]; 0.0328 in [8]; 0.107 in [10]; 0.0396 in assay [11]; 0.0044 in assay [12]; 0.061 in assay [13]. Further, the Bliss excess turned out to be 0.0534 in assay [15], 0.0456 in assay [17], 0.0001 in [18] and 0.0788 in assay [19].
